Test results taken from US11136329B2, “JAK inhibitors” (Vimalan Biosciences, Inc., priority 2019, dated 2021).

Key:
Type in all cases: biochemical
JAK1 = JAK1 (Homo sapiens (Human), UniProt P23458); test: JAK/TYK2 assay (Kinase Glo luminescence), JAK1; conditions: 7.5 nM enzyme, 2 uM ATP, 30 uM IRS-1, 1 hr
How it was run: (§1)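 Recombinant kinases incubated with compound (10-point 3-fold series, 10000–0.51 nM final) and substrate in 20 mM HEPES, 10 mM MgCl2, 0.01% Tween, 1 mM DTT, pH 7.5, at 25 °C for 1–2 h. Kinase-Glo luminescence, inversely proportional to kinase activity; no-compound wells as positive control.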

JAK2 = JAK2 (Homo sapiens (Human), UniProt O60674); test: JAK/TYK2 assay (Kinase Glo luminescence), JAK2; conditions: 0.8 nM enzyme, 2 uM ATP, 4 uM pEY, 1 hr
How it was run: as §1

TYK2 = TYK2 (Homo sapiens (Human), UniProt P29597); test: JAK/TYK2 assay (Kinase Glo luminescence), TYK2; conditions: 9 nM enzyme, 2 uM ATP, 30 uM IRS-1, 1 hr
How it was run: as §1

JAK3 = JAK3 (Homo sapiens (Human), UniProt P52333); test: JAK/TYK2 assay (Kinase Glo luminescence), JAK3; conditions: 1.5 nM enzyme, 2 uM ATP, 4 uM pEY, 1 hr
How it was run: as §1

Measured: IC50

JAK1, sequence (P23458 whole entry, species assumed): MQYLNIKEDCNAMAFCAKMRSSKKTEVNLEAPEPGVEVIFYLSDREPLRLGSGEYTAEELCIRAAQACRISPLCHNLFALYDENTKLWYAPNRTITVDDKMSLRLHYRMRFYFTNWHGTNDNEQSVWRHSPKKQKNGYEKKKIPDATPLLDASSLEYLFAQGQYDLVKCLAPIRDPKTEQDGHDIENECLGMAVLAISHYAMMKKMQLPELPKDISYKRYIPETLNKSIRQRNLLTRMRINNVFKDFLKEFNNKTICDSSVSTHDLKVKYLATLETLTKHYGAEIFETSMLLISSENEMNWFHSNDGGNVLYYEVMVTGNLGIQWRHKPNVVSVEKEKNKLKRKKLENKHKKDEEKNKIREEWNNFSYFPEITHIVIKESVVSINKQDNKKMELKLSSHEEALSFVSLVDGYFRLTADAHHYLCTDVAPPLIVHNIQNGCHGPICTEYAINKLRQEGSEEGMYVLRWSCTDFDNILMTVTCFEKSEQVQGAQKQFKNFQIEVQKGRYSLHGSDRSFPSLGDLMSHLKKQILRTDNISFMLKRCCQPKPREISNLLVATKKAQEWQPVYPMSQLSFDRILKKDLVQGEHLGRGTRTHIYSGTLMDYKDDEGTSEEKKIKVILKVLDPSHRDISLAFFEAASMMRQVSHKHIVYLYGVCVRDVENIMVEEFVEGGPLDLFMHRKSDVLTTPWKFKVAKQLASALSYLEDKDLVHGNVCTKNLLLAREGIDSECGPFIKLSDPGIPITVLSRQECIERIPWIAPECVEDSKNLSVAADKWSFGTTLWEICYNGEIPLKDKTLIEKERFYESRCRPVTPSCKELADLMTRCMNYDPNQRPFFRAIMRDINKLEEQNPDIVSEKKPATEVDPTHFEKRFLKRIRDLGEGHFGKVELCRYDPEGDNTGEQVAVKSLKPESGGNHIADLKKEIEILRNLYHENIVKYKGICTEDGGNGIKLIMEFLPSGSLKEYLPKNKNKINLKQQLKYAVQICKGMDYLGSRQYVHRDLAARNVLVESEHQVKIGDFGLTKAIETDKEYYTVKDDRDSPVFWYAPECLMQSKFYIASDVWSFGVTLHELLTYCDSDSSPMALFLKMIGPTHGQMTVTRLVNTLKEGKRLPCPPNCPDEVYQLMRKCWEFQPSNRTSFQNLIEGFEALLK
JAK2, sequence (O60674 whole entry, species assumed): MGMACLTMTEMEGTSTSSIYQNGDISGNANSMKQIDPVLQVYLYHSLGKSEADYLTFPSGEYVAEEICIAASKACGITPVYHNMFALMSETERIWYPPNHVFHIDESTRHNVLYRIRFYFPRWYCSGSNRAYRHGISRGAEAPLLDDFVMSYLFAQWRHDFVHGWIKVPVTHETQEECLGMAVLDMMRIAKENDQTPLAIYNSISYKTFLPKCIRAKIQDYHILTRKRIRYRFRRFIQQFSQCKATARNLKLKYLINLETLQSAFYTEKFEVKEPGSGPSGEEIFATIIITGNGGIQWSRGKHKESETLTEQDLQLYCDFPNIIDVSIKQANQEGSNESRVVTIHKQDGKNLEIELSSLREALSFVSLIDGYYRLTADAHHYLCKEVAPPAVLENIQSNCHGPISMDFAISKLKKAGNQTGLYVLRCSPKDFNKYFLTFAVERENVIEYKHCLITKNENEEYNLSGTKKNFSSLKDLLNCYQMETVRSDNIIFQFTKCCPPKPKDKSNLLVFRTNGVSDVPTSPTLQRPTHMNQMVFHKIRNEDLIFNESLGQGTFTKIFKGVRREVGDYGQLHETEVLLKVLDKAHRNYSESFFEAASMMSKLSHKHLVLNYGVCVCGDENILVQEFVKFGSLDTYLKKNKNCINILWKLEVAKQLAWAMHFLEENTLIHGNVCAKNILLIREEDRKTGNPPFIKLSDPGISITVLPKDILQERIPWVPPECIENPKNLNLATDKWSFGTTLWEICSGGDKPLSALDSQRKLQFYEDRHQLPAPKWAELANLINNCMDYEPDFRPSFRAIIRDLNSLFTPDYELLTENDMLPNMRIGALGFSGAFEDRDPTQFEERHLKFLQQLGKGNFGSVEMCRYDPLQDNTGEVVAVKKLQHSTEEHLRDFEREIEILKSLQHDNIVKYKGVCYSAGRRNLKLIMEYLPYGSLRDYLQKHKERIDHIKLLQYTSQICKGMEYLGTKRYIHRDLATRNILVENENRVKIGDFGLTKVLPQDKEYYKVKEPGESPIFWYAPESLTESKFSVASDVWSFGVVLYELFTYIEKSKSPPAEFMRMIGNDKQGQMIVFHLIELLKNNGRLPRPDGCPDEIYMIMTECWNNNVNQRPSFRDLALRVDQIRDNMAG
JAK3, sequence (P52333 whole entry, species assumed): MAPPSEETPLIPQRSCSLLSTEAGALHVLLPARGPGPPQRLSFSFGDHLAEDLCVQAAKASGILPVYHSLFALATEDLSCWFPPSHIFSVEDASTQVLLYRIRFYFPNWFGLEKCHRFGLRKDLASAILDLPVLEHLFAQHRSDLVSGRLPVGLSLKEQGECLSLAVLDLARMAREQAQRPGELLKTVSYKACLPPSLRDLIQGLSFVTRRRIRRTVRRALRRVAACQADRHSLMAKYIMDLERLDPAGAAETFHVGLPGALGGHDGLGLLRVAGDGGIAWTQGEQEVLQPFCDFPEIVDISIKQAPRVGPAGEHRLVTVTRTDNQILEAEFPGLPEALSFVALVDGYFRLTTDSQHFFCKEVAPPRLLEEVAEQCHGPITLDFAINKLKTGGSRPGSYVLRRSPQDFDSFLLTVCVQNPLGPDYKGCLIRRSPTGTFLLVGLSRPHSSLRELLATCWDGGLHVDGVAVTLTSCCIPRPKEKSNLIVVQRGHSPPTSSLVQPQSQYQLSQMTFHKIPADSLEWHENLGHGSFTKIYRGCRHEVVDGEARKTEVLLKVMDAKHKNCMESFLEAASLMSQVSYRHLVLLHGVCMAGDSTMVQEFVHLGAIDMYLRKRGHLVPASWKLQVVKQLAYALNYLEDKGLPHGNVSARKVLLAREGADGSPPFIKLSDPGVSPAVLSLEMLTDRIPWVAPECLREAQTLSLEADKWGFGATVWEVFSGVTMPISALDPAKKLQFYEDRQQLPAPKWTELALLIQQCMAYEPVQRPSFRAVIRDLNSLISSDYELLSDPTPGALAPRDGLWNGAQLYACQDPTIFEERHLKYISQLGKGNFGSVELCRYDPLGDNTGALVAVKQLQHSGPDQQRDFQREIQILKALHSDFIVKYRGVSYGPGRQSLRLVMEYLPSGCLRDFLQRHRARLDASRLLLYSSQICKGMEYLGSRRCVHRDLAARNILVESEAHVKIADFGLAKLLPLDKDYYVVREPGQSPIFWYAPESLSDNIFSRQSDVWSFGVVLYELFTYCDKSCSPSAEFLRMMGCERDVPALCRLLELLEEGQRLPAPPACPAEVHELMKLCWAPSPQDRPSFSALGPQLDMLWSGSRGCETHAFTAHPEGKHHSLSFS
TYK2, sequence (P29597 whole entry, species assumed): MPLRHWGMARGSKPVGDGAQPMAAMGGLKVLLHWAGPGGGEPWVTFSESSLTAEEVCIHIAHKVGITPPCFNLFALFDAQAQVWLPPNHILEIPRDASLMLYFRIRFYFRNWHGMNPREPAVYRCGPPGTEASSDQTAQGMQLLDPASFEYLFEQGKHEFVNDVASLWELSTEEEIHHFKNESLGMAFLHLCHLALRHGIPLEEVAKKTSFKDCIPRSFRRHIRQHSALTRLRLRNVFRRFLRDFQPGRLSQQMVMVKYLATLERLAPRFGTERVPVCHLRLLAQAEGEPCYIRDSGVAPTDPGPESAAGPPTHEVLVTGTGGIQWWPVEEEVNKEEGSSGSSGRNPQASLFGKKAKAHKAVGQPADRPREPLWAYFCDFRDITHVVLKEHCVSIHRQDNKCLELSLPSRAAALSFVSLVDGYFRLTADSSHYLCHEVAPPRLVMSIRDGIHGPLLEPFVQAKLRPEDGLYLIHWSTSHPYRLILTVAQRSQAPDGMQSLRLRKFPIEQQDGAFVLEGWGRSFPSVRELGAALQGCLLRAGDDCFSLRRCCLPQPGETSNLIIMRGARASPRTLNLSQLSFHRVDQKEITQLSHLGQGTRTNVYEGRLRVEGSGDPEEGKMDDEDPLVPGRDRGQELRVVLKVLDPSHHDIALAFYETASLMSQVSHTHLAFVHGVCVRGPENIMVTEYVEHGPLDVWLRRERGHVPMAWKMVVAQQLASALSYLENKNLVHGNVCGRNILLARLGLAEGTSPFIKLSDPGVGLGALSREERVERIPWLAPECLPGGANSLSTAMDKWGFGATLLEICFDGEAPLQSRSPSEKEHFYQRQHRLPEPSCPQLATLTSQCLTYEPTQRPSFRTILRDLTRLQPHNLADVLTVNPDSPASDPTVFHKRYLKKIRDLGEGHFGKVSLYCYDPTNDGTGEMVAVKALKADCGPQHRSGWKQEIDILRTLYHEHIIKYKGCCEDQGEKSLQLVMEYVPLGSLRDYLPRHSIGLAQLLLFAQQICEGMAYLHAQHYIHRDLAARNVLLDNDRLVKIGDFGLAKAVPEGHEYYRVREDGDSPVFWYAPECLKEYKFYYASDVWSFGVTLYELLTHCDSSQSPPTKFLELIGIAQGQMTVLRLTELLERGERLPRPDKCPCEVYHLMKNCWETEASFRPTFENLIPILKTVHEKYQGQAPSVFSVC

CC(C)OC(=O)Cn1cc(Nc2ncc3ccn(C[C@@H](CCO)C(C)C)c3n2)cn1 [Compound 97, isopropyl (S)-2-(4-((7-(4-hydroxy-2-isopropylbutyl)-7H-pyrrolo[2,3-d]pyrimidin-2-yl)amino)-1H-pyrazol-1-yl)acetate]
< 100 nM: all assays above

CC(C)OC(=O)Cn1cc(Nc2ncc3ccn(C[C@@H](CCCl)C(C)C)c3n2)cn1 [Compound 98, isopropyl (S)-2-(4-((7-(4-chloro-2-isopropylbutyl)-7H-pyrrolo[2,3-d]pyrimidin-2-yl)amino)-1H-pyrazol-1-yl)acetate]
< 100 nM: all assays above

CC(C)OC(=O)Cn1cc(Nc2ncc3ccn(C[C@@H](CCF)C(C)C)c3n2)cn1 [Compound 99, isopropyl (S)-2-(4-((7-(4-fluoro-2-isopropylbutyl)-7H-pyrrolo[2,3-d]pyrimidin-2-yl)amino)-1H-pyrazol-1-yl)acetate]
< 100 nM: all assays above

CCC[C@H](Cn1ccc2cnc(Nc3cnn(CC(=O)OC(C)C)c3)nc21)C(C)C [Compound 100, isopropyl (S)-2-(4-((7-(2-isopropylpentyl)-7H-pyrrolo[2,3-d]pyrimidin-2-yl)amino)-1H-pyrazol-1-yl)acetate]
< 100 nM: all assays above

CCC(Cn1ccc2cnc(Nc3cnn(CC(=O)OC(C)C)c3)nc21)CC(F)(F)F (centres unmarked) [Compound 101, isopropyl 2-(4-((7-(2-ethyl-4,4,4-trifluorobutyl)-7H-pyrrolo[2,3-d]pyrimidin-2-yl)amino)-1H-pyrazol-1-yl)acetate]
< 100 nM: all assays above

C=CC[C@H](Cn1ccc2cnc(Nc3cnn(CC(=O)OC(C)C)c3)nc21)C(C)C [Compound 102, isopropyl (S)-2-(4-((7-(2-isopropylpent-4-en-1-yl)-7H-pyrrolo[2,3-d]pyrimidin-2-yl)amino)-1H-pyrazol-1-yl)acetate]
< 100 nM: all assays above

CCC(CC)Cn1ccc2cnc(Nc3cnn(CC(=O)OCCN(C)C)c3)nc21 [Compound 103, 2-(dimethylamino)ethyl 2-(4-((7-(2-ethylbutyl)-7H-pyrrolo[2,3-d]pyrimidin-2-yl)amino)-1H-pyrazol-1-yl)acetate]
< 100 nM: all assays above

CC[C@H](Cn1ccc2cnc(Nc3cnn(CC(=O)O)c3)nc21)C(C)C [Compound 104, (S)-2-(4-((7-(2-ethyl-3-methylbutyl)-7H-pyrroIo[2,3-d]pyrimidin-2-yl)amino)-1H-pyrazol-1-yl)acetic acid]
< 100 nM: all assays above

CCC(Cn1ccc2cnc(Nc3cnn(CC(=O)O[C@@H](C)CO)c3)nc21)C(C)C (stereo partly drawn) [Compound 105, (S)-1-hydroxypropan-2-yl 2-(4-((7-(2-ethyl-3-methylbutyl)-7H-pyrrolo[2,3-d]pyrimidin-2-yl)amino)-1H-pyrazol-1-yl)acetate]
< 100 nM: all assays above

CCC(Cn1ccc2cnc(Nc3cnn(CC(=O)O[C@H](C)CO)c3)nc21)C(C)C (stereo partly drawn) [Compound 106, (R)-1-hydroxypropan-2-yl 2-(4-((7-(2-ethyl-3-methylbutyl)-7H-pyrrolo[2,3-d]pyrimidin-2-yl)amino)-1H-pyrazol-1-yl)acetate]
< 100 nM: all assays above

CCC(C)OC(=O)Cn1cc(Nc2ncc3ccn(CC(CC)C(C)C)c3n2)cn1 (centres unmarked) [Compound 107, sec-butyl 2-(4-((7-(2-ethyl-3-methylbutyl)-7H-pyrrolo[2,3-d]pyrimidin-2-yl)amino)-1H-pyrazol-1-yl)acetate]
< 100 nM: all assays above

CCC(Cn1ccc2cnc(Nc3cnn(CC(=O)OCC(C)C)c3)nc21)C(C)C (centres unmarked) [Compound 108, isobutyl 2-(4-((7-(2-ethyl-3-methylbutyl)-7H-pyrrolo[2,3-d]pyrimidin-2-yl)amino)-1H-pyrazol-1-yl)acetate]
< 100 nM: all assays above

CCC(Cn1ccc2cnc(Nc3cnn(CC(=O)OC(C)C(C)O)c3)nc21)C(C)C (centres unmarked) [Compound 109, 3-hydroxybutan-2-yl 2-(4-((7-(2-ethyl-3-methylbutyl)-7H-pyrrolo[2,3-d]pyrimidin-2-yl)amino)-1H-pyrazol-1-yl)acetate]
< 100 nM: all assays above

CCC(Cn1ccc2cnc(Nc3cnn(CC(=O)OC[C@@H](C)O)c3)nc21)C(C)C (stereo partly drawn) [Compound 110, (R)-2-hydroxypropyl 2-(4-((7-(2-ethyl-3-methylbutyl)-7H-pyrrolo[2,3-d]pyrimidin-2-yl)amino)-1H-pyrazol-1-yl)acetate]
< 100 nM: all assays above

CCC(Cn1ccc2cnc(Nc3cnn(CC(=O)OCC(O)CO)c3)nc21)C(C)C (centres unmarked) [Compound 111, 2,3-dihydroxypropyl 2-(4-((7-(2-ethyl-3-methylbutyl)-7H-pyrrolo[2,3-d]pyrimidin-2-yl)amino)-1H-pyrazol-1-yl)acetate]
< 100 nM: all assays above

CCC(Cn1ccc2cnc(Nc3cnn(CC(=O)OC[C@H](C)O)c3)nc21)C(C)C (stereo partly drawn) [Compound 112, (S)-2-hydroxypropyl 2-(4-((7-(2-ethyl-3-methylbutyl)-7H-pyrrolo[2,3-d]pyrimidin-2-yl)amino)-1H-pyrazol-1-yl)acetate]
< 100 nM: all assays above

CCC(CC)Cn1ccc2cnc(Nc3cnn(CC(=O)OC(C)C(C)O)c3)nc21 (centres unmarked) [Compound 113, 3-hydroxybutan-2-yl 2-(4-((7-(2-ethylbutyl)-7H-pyrrolo[2,3-d]pyrimidin-2-yl)amino)-1H-pyrazol-1-yl)acetate]
< 100 nM: all assays above

CC[C@@H](Cn1ccc2cnc(Nc3cnn(C(C)C(=O)O)c3)nc21)C(C)C (stereo partly drawn) [Compound 114, 2-(4-((7-((R)-2-ethyl-3-methylbutyl)-7H-pyrrolo[2,3-d]pyrimidin-2-yl)amino)-1H-pyrazol-1-yl)propanoic acid]
< 100 nM: all assays above

CC[C@H](Cn1ccc2cnc(Nc3cnn(CCC(=O)O)c3)nc21)C(C)C [Compound 115, (S)-3-(4-((7-(2-ethyl-3-methylbutyl)-7H-pyrrolo[2,3-d]pyrimidin-2-yl)amino)-1H-pyrazol-1-yl)propanoic acid]
< 100 nM: all assays above

CC(C(=O)O)n1cc(Nc2ncc3ccn(C[C@H]4CC[C@H](O)CC4)c3n2)cn1 (some centres unmarked) [Compound 116, 2-(4-((7-(((1r,4r)-4-hydroxycyclohexyl)methyl)-7H-pyrrolo[2,3-d]pyrimidin-2-yl)amino)-1H-pyrazol-1-yl)propanoic acid]
< 100 nM: all assays above
